The values that follow come from US20240368135A1 (VERTEX PHARMACEUTICALS INCORPORATED, priority 2021, published 2024).

One may read the IC50 as the point on the concentration scale where inhibition reaches its midpoint.

Chain of human NaV 1.8 (Q9Y5Y9 126-399 limits assumed): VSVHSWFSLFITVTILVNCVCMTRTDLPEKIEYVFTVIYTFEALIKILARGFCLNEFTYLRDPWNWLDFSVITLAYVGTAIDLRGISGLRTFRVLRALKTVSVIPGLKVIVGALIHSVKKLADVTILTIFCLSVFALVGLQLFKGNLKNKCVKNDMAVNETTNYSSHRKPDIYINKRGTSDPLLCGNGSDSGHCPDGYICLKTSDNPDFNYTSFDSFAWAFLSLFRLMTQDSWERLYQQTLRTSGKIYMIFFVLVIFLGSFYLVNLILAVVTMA
Chain of human NaV 1.8 (Q9Y5Y9 660-890 limits assumed): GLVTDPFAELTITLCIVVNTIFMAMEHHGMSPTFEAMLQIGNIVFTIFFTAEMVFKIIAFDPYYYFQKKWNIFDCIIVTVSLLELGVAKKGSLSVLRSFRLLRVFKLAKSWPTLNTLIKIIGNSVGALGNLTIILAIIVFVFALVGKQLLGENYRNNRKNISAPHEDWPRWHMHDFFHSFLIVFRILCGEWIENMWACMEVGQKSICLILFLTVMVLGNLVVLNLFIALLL
Chain of human NaV 1.8 (Q9Y5Y9 1148-1722 limits assumed): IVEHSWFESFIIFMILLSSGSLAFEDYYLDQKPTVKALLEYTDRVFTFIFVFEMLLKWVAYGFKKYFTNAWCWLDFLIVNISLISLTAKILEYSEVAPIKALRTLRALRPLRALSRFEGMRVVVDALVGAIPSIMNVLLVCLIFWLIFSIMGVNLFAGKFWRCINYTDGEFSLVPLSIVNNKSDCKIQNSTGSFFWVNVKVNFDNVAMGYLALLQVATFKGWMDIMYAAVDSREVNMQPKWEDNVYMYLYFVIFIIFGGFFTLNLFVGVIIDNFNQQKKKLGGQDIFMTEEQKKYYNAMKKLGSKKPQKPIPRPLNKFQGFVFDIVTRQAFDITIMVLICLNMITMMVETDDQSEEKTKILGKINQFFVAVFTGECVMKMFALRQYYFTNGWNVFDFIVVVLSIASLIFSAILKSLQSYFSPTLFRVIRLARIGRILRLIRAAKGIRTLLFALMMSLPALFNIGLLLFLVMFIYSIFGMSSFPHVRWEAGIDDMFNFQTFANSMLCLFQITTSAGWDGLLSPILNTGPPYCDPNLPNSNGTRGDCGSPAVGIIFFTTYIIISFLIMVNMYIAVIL

The first experiment deals with human NaV 1.8 (Homo sapiens, UniProt Q9Y5Y9). The experiment in a line: E-VIPR assay detecting and measuring NaV inhibition properties. The format is cell-based. The following applies: HEK cells expressing truncated human NaV 1.8; in the presence of human serum (compound numbers followed by *); read-out: IC50 in the E-VIPR Assay, performed in the presence of human serum. The gist of the method:
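Membrane potential was followed by coumarin/oxonol FRET during electrical field stimulation of matrigel-seeded HEK cells carrying truncated human NaV1.8 plus KIR2.1. Dosing used 11 points, 3-fold steps, top 300 nM final, 0.625% DMSO, with or without 25% human serum.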
`C[C@@H]1[C@H](c2ccc(F)c(F)c2OC(F)F)[C@@H](C(=O)Nc2cc(S(C)(=O)=O)c[n+]([O-])c2)O[C@]1(C)C(F)(F)F` (single isomer, unassigned) [Compound 87]: the IC50 was not below 1000 nM.

`COc1c([C@H]2[C@H](C(=O)Nc3ccnc(C(CO)OC)c3)O[C@@](C)(C(F)(F)F)[C@H]2C)ccc(F)c1F` (single isomer, unassigned) [Compound 249, rel-(2R*,3S*,4S*,5R*)-3-(3,4-difluoro-2-methoxyphenyl)-N-(2-(2-hydroxy-1-methoxyethyl)pyridin-4-yl)-4,5-dimethyl-5-(trifluoromethyl)tetrahydrofuran-2-carboxamide]: the IC50 was less than 10 nM.

As to `COc1c(C2CC(C)(C(F)(F)F)OC2C(=O)Nc2ccnc(C(O)C(C)O)c2)ccc(F)c1F` (single isomer, unassigned) [Compound 695], the IC50 was not below 1000 nM.

Still in this experiment, the particulars now being: HEK cells expressing truncated human NaV 1.8; no human serum; read-out: IC50 in the E-VIPR Assay.
For the molecule `COc1c([C@H]2[C@H](C(=O)Nc3ccc(-c4nncn4C)nc3)O[C@@](C)(C(F)(F)F)[C@H]2C)ccc(F)c1F` [Compound 397, (2R,3S,4S,5R)-3-(3,4-difluoro-2-methoxyphenyl)-4,5-dimethyl-N-(6-(4-methyl-4H-1,2,4-triazol-3-yl)pyridin-3-yl)-5-(trifluoromethyl)-tetrahydrofuran-2-carboxamide], the IC50 was 100 to 1000 nM.

For `COc1c([C@H]2[C@H](C(=O)NCC(=O)N3CCOCC3)O[C@@](C)(C(F)(F)F)[C@H]2C)ccc(F)c1F` [Compound 304, (2R,3S,4S,5R)-3-(3,4-difluoro-2-methoxyphenyl)-4,5-dimethyl-N-(2-morpholino-2-oxoethyl)-5-(trifluoromethyl)tetrahydrofuran-2-carboxamide], the IC50 was not below 1000 nM.

Regarding `C=Cc1c([C@H]2[C@H](C(=O)Nc3cn(C(F)F)nc3C)O[C@@](C)(C(F)(F)F)[C@H]2C)ccc(F)c1F` [Compound 676, (2R,3S,4S,5R)-3-(3,4-difluoro-2-vinylphenyl)-N-(1-(difluoromethyl)-3-methyl-1H-pyrazol-4-yl)-4,5-dimethyl-5-(trifluoromethyl)tetrahydrofuran-2-carboxamide], the IC50 was less than 10 nM.

Take `C[C@H]1[C@@H](c2ccc(F)c(F)c2OCCN2CC3(COC3)C2)[C@H](C(=O)Nc2ccnc(CO)c2)O[C@@]1(C)C(F)(F)F` [Compound 618, (2R,3S,4S,5R)-3-(2-(2-(2-oxa-6-azaspiro[3.3]heptan-6-yl)ethoxy)-3,4-difluorophenyl)-N-(2-(hydroxymethyl)pyridin-4-yl)-4,5-dimethyl-5-(trifluoromethyl)tetrahydrofuran-2-carboxamide]: the half-inhibitory concentration (IC50) was in the range of 10 to 100 nM.

Regarding `COc1c([C@@H]2[C@@H](C(=O)Nc3ccc(C(N)=O)nc3)O[C@](C)(C(F)(F)F)[C@@H]2C)ccc(F)c1C(F)F` (stereo in doubt) [Compound 169, rel-5-((2S,3R,4R,5S)-3-(3-(difluoromethyl)-4-fluoro-2-methoxyphenyl)-4,5-dimethyl-5-(trifluoromethyl)tetrahydrofuran-2-carboxamido)picolinamide], the half-inhibitory concentration (IC50) was not below 1000 nM.

For the molecule `CN=S(C)(=O)c1ccc(NC(=O)[C@@H]2O[C@@](C)(C(F)(F)F)[C@@H](C)[C@H]2c2ccc(F)c(F)c2OC)cn1` (single isomer, unassigned) [Compound 338], the IC50 lay within 10 to 100 nM.

Consider `COc1c([C@H]2[C@H](C(=O)Nc3cnnc(C(C)(C)O)c3)O[C@@](C)(C(F)(F)F)[C@H]2C)ccc(F)c1F` [Compound 219, (2R,3S,4S,5R)-3-(3,4-difluoro-2-methoxy-phenyl)-N-[6-(1-hydroxy-1-methyl-ethyl)pyridazin-4-yl]-4,5-dimethyl-5-(trifluoromethyl)tetrahydrofuran-2-carboxamide], for which the IC50 is less than 10 nM.

Regarding `C=C(CO)COc1c([C@H]2[C@H](C(=O)Nc3cn(C(F)F)nc3C)O[C@@](C)(C(F)(F)F)[C@H]2C)ccc(F)c1F` [Compound 601, (2R,3S,4S,5R)-3-[3,4-difluoro-2-[2-(hydroxymethyl)allyloxy]phenyl]-N-[1-(difluoromethyl)-3-methyl-pyrazol-4-yl]-4,5-dimethyl-5-(trifluoromethyl)tetrahydrofuran-2-carboxamide], the IC50 was less than 10 nM.

As to `C[C@H]1[C@@H](c2ccc(F)c(F)c2O)[C@H](C(=O)Nc2ccc(C(N)=O)nc2)O[C@@]1(C)C(F)(F)F` [Compound 649, 5-[[(2R,3S,4S,5R)-3-(3,4-difluoro-2-hydroxy-phenyl)-4,5-dimethyl-5-(trifluoromethyl)tetrahydrofuran-2-carbonyl]amino]pyridine-2-carboxamide], the IC50 fell in the range of 100 to 1000 nM.

On to `COc1c([C@H]2[C@H](C(=O)Nc3cc(C(N)C(C)(C)O)ncc3F)O[C@@](C)(C(F)(F)F)[C@H]2C)ccc(F)c1F` (single isomer, unassigned) [Compound 428, rel-(2R*,3S*,4S*,5R*)-N-(2-(1-amino-2-hydroxy-2-methylpropyl)-5-fluoropyridin-4-yl)-3-(3,4-difluoro-2-methoxyphenyl)-4,5-dimethyl-5-(trifluoromethyl)-tetrahydrofuran-2-carboxamide], for which the IC50 was less than 10 nM.

Regarding `COc1c([C@H]2[C@H](C(=O)Nc3ccnc(N4CCN(C)CCC4=O)c3)O[C@@](C)(C(F)(F)F)[C@H]2C)ccc(F)c1F` [Compound 466, (2R,3S,4S,5R)-3-(3,4-difluoro-2-methoxyphenyl)-4,5-dimethyl-N-(2-(4-methyl-7-oxo-1,4-diazepan-1-yl)pyridin-4-yl)-5-(trifluoromethyl)tetrahydrofuran-2-carboxamide], the IC50 fell in the range of 10 to 100 nM.

As to `CCOc1c([C@@H]2[C@@H](C(=O)Nc3ccnc(S(C)(=N)=O)c3)O[C@](C)(C(F)(F)F)[C@@H]2C)ccc(F)c1C` (relative stereo) [Compound 124, rel-(2S,3R,4R,5S)-3-(2-ethoxy-4-fluoro-3-methylphenyl)-4,5-dimethyl-N-(2-(S-methylsulfonimidoyl)pyridin-4-yl)-5-(trifluoromethyl)tetrahydrofuran-2-carboxamide], the 50% inhibitory concentration (IC50) was in the range of 100 to 1000 nM.

For the molecule `COc1c(C2C(C(=O)Nc3ccn4nnnc4c3)OC(C)(C(F)(F)F)C2C)ccc(F)c1C` (single isomer, unassigned) [Compound 133, 3-(4-fluoro-2-methoxy-3-methyl-phenyl)-4,5-dimethyl-N-(tetrazolo[1,5-a]pyridin-7-yl)-5-(trifluoromethyl)tetrahydrofuran-2-carboxamide], the IC50 was in the range of 100 to 1000 nM.

Take `COc1c(C2C(C(=O)Nc3ccnc(C(O)CO)c3)OC(C)(C(F)(F)F)C2C)ccc(F)c1F` (single isomer, unassigned) [Compound 44, 3-(3,4-difluoro-2-methoxy-phenyl)-N-[2-(1,2-dihydroxyethyl)-4-pyridyl]-4,5-dimethyl-5-(trifluoromethyl)tetrahydrofuran-2-carboxamide]: the half-inhibitory concentration (IC50) was less than 10 nM.

In the case of `COc1c([C@H]2[C@H](C(=O)NC3CN(S(C)(=O)=O)C3)O[C@@](C)(C(F)(F)F)[C@H]2C)ccc(F)c1F` [Compound 307, (2R,3S,4S,5R)-3-(3,4-difluoro-2-methoxyphenyl)-4,5-dimethyl-N-(1-(methylsulfonyl)azetidin-3-yl)-5-(trifluoromethyl)tetrahydrofuran-2-carboxamide], the IC50 was not below 1000 nM.

Regarding `COc1c([C@H]2[C@H](C(=O)Nc3ccc4nc(C(N)=O)nn4c3)O[C@@](C)(C(F)(F)F)[C@H]2C)ccc(F)c1F` [Compound 16], the IC50 was 10 to 100 nM.

As to `Cc1cnc(COc2c([C@H]3[C@H](C(=O)Nc4cccnc4)O[C@@](C)(C(F)(F)F)[C@H]3C)ccc(F)c2F)n1C` [Compound 651, (2R,3S,4S,5R)-3-(2-((1,5-dimethyl-1H-imidazol-2-yl)methoxy)-3,4-difluorophenyl)-4,5-dimethyl-N-(pyridin-3-yl)-5-(trifluoromethyl)tetrahydrofuran-2-carboxamide], the IC50 was less than 10 nM.

`COc1c([C@H]2[C@H](C(=O)Nc3cc(C(N)C(C)(C)OC)ncc3F)O[C@@](C)(C(F)(F)F)[C@H]2C)ccc(F)c1F` (single isomer, unassigned) [Compound 356, rel-(2R*,3S*,4S*,5R*)-N-(2-(1-amino-2-methoxy-2-methylpropyl)-5-fluoropyridin-4-yl)-3-(3,4-difluoro-2-methoxyphenyl)-4,5-dimethyl-5-(trifluoromethyl)-tetrahydrofuran-2-carboxamide]: the IC50 lay within 10 to 100 nM.

`COc1c([C@H]2[C@H](C(=O)Nc3ccnc(N4C(=O)[C@H]5C[C@@H]4CN5)c3)O[C@@](C)(C(F)(F)F)[C@H]2C)ccc(F)c1F` [Compound 482, (2R,3S,4S,5R)-3-(3,4-difluoro-2-methoxyphenyl)-4,5-dimethyl-N-(2-((1R,4R)-3-oxo-2,5-diazabicyclo[2.2.1]heptan-2-yl)pyridin-4-yl)-5-(trifluoromethyl)tetrahydrofuran-2-carboxamide]: the IC50 was 10 to 100 nM.

Consider `COc1c([C@H]2[C@H](C(=O)Nc3ccnc(C4(N)CCOC4)c3)O[C@@](C)(C(F)(F)F)[C@H]2C)ccc(F)c1F` (single isomer, unassigned) [Compound 346, rel-(2R*,3S*,4S*,5R*)-N-(2-(3-aminotetrahydrofuran-3-yl)pyridin-4-yl)-3-(3,4-difluoro-2-methoxyphenyl)-4,5-dimethyl-5-(trifluoromethyl)-tetrahydrofuran-2-carboxamide], for which the IC50 was less than 10 nM.

Consider `COCCNC(COC)c1ccc(NC(=O)[C@@H]2O[C@@](C)(C(F)(F)F)[C@@H](C)[C@H]2c2ccc(F)c(F)c2OC)cn1` (single isomer, unassigned) [Compound 417, rel-(2R*,3S*,4S*,5R*)-3-(3,4-difluoro-2-methoxyphenyl)-N-(6-(2-methoxy-1-((2-methoxyethyl)amino)-ethyl)pyridin-3-yl)-4,5-dimethyl-5-(trifluoromethyl)-tetrahydrofuran-2-carboxamide], for which the IC50 was in the range of 10 to 100 nM.
